{"source": "patent US20240269293A1", "about": "“PROTEIN-MACROMOLECULE CONJUGATES AND METHODS OF USE THEREOF” (BEIJING XUANYI PHARMASCIENCES CO., LTD., priority 2021, published 2024)", "key": {"CTLL-2 cells": {"tested_on": "CTLL-2 cells", "test": "CTLL-2 cell proliferation assay", "type": "cell-based, mouse", "experimental": "CTLL-2 cells (mouse cytotoxic T lymphocyte cell line) were maintained in complete RPMI 1640 medium supplemented with 10% fetal bovine serum, and 10% IL-2 culture supplement (T-STIM™ with ConA (concanavalin-A)) at 37° C. under a 5% CO2 atmosphere. The cells were cultured in suspension until they reach a cell density of 2-3×10^5 cells/ml before splitting.\nFor the activity assay, 3-4 days after the last split, the cells were washed three times in Dulbecco's phosphate buffered saline. The cells were then re-suspended in supplemented media without T-STIM™ at a cell density of ˜5×10^5 cells/mL, and plated in 96-well white walled clear bottom microplates at 90 μl/well. Experiments were also conducted using supplemented media (without T-STIM™) adjusted to pH 6.7-7, in order to minimize the release of conjugates during the course of incubation. Then, 10 μl of 10× concentrations of test compound, diluted in supplemented media without T-STIM™, was added. The cells were incubated at 37° C. in a 5% CO2 atmosphere for 48 hours.\nThe activity of both released IL-2 and unreleased conjugates were tested. The test compounds were stored under acidic condition (10 mM, sodium acetate buffer, pH 4) to stabilize conjugation. To test the activity of conjugates, the sample was diluted from the storage buffer into supplemented media ˜ one hour prior to the assay. […]"}, "CD8+ T cells": {"tested_on": "CD8+ T cells", "test": "pSTAT5 signaling in human LRS-derived PBMC, CD8+ T cells (flow cytometry)", "type": "cell-based", "details": "for pSTAT5 EC50, CD8+ T cells: 45 minute incubation", "experimental": "(§2) To determine how test compounds affect activation of primary immune cell subpopulations, concentration-response profiling of lymphocyte activation in human LRS-derived peripheral blood mononuclear cell (PBMC) samples were performed using multi-color flow cytometry.\n(§3) An LRS was acquired day of draw and PBMC was extracted using a ficoll density gradient protocol. PBMC was resuspended in RPMI supplemented with 10% Fetal Bovine Serum and 1% Pen-Strep Glutamine. PBMC was incubated at 37° C. for 30 minutes prior to stimulation.\n(§4) A 12-point dose curve with 5-fold dilutions was created for all compounds. Top dose was 30 ug mL. Dose curves were diluted in PBS w/0.1% BSA and added as 10× stocks. After a 45 minute incubation, samples were fixed and stained with antibodies to detect the phosphorylated form of the transcription factor STAT5 (pTATA5), and a panel of surface markers to follow pSTAT5 formation in specific T Cell and natural killer (NK) cell subpopulation.\n(§5) Samples were stained with the following pre-perm panel: CD3, CD25, CD8, CD56, CD16, CD4, Dump (CD14), Dump (CD19), and CD127. Stains were incubated for 30 minutes then washed out. Streptavidin BV421 (Biolegend cat #405225) was then added and incubated for 20 minutes. Streptavidin was washed out and samples were MeOH permed and stained with the following post-perm panel: FOXP3. STAT5, Dump (CD15). Stains were incubated for 60 minutes then washed out and analyzed by flow cytometry.\n(§6) Flow cytometry data were analyzed for activation of different T and NK cell subsets in concentration-response mode, reading pSTAT5 accumulation after treatment with test compounds. The median fluorescence intensity for pSTAT5 was used to create the dose curves. EC50 values for NK cells, Treg cells, CD8+ T cells were calculated from the concentration-response curves."}, "NK cells": {"tested_on": "NK cells", "test": "pSTAT5 signaling in human LRS-derived PBMC, NK cells (flow cytometry)", "type": "cell-based", "details": "45 minute incubation", "experimental": "as §2, §3, §4, §5, §6"}, "Treg cells": {"tested_on": "Treg cells", "test": "pSTAT5 signaling in human LRS-derived PBMC, Treg cells (flow cytometry)", "type": "cell-based", "details": "45 minute incubation", "experimental": "as §2, §3, §4, §5, §6"}, "[1]": {"tested_on": "CT26 murine colon carcinoma", "type": "in vivo", "description": "5×10^5 CT26 cells in 0.1 ml of PBS were implanted subcutaneously for each 7-10 weeks old syngeneic female BALB/c mouse in the right front flank region. Tumors were allowed to grow to palpable size, i.e., 80-110 cu mm before randomization and assigning groups (n=8) as designed. The mice were administered test compounds i.e., rIL-2, rIL-2-polymer conjugates of vehicle at different dose concentrations and dose regimes as indicated in Tables 6-8. The body weights and tumor volumes were measured three times per week. Mice that have been tumor free for more than 30 days were re-challenged in the left front flank with CT26 tumor cells (5×10^5) in 0.1 mal of PBS.\n(§1) Tumor growth inhibition following the administration of rIL-2 and rIL-2-polymer conjugates at different administration schemes were provided in FIGS. 5A-7B. The tumor growth inhibition (TGI) for different treatment groups, complete response (CR) rate, toxicity and rechallenge results were shown in Tables 9-11. Tumor Growth Inhibition; TGI %=(1−ΔT/ΔC)×100; Ti and Ci as the mean tumor volumes of the treatment and vehicle groups on the measurement day; T0 and C0 as the mean tumor volumes of the treatment and vehicle groups on Day 0."}, "[2]": {"tested_on": "MC38 murine colon carcinoma", "test": "Subcutaneous MC38 murine colon carcinoma syngeneic model", "type": "in vivo, C57BL/6 mouse", "details": "2 mg/kg IP b.i.d. × 5, 2 cycles", "description": "1×10^6 MC38 cells in 0.1 ml of PBS were implanted subcutaneously for each 7-10 weeks old syngeneic female C57BL/6 mouse in the right front flank region. Tumors were allowed to grow to palpable size, i.e., 80-100 cu mm before randomization and assigning groups (n=3) as designed. The mice were administered test compounds i.e., IL-2, rIL-2-polymer conjugates of vehicle at different dose concentrations and dose regimes as indicated in Table 12. The body weights and tumor volumes were measured three times per week.\nas §1, with “FIG. 8.” for “FIGS. 5A-7B.”, “rate, and” for “rate,”, “toxicity” for “toxicity and rechallenge results”, “Table 13.” for “Tables 9-11.”"}, "[3]": {"tested_on": "metastatic melanoma and renal cell carcinoma", "details": "high-dose regimen administered every eight hours; cited from earlier work"}, "[4]": {"details": "Table 9, 2 mg/kg IP b.i.d. × 5, 2 cycles"}, "[5]": {"details": "Table 11, 2 mg/kg IP b.i.d. × 5, 2 cycles"}}, "note": "Like-named read-outs stand apart in the source and are kept apart here."}
{"substance": "Example 24: recombinant IL-2 of SEQ ID NO:1 expressed in E. coli, used as control", "values": [{"measurement": "EC50", "setting": "CTLL-2 cells; Table 3A, 48 hour incubation, CCK8", "result": 1.03, "unit": "pM"}, {"measurement": "EC50, CTLL-2 cell proliferation", "setting": "CTLL-2 cells; Table 3B, unreleased conjugate (rIL-2 control as such)", "result": 0.78, "unit": "ng/mL"}, {"measurement": "CD8/Treg ratio (pSTAT5 EC50)", "setting": "CD8+ T cells; Run 1", "result": 928}, {"measurement": "pSTAT5 EC50, CD8+ T cells", "setting": "CD8+ T cells; Run 1", "result": 37.10, "unit": "ng/mL"}, {"measurement": "CD8/Treg ratio (pSTAT5 EC50)", "setting": "CD8+ T cells; Run 2", "result": 302}, {"measurement": "pSTAT5 EC50, CD8+ T cells", "setting": "CD8+ T cells; Run 2", "result": 78.50, "unit": "ng/mL"}, {"measurement": "CD8/Treg ratio (pSTAT5 EC50)", "setting": "CD8+ T cells; Run 3", "result": 1874}, {"measurement": "pSTAT5 EC50, CD8+ T cells", "setting": "CD8+ T cells; Run 3", "result": 37.48, "unit": "ng/mL"}, {"measurement": "pSTAT5 EC50, NK cells", "setting": "NK cells; Run 1", "result": 9.34, "unit": "ng/mL"}, {"measurement": "pSTAT5 EC50, NK cells", "setting": "NK cells; Run 2", "result": 22.02, "unit": "ng/mL"}, {"measurement": "pSTAT5 EC50, NK cells", "setting": "NK cells; Run 3", "result": 4.01, "unit": "ng/mL"}, {"measurement": "pSTAT5 EC50, Treg cells", "setting": "Treg cells; Run 1", "result": 0.04, "unit": "ng/mL"}, {"measurement": "pSTAT5 EC50, Treg cells", "setting": "Treg cells; Run 2", "result": 0.26, "unit": "ng/mL"}, {"measurement": "pSTAT5 EC50, Treg cells", "setting": "Treg cells; Run 3", "result": 0.02, "unit": "ng/mL"}, {"measurement": "TGI (day 19)", "setting": "[1]; Table 9 (FIGS. 5A-5B), 2 mg/kg IP b.i.d. × 5, 2 cycles", "result": 61.76, "unit": "%"}, {"measurement": "CR (tumor free mice/mice treated)", "setting": "[1]; [4]", "result": "1/8"}, {"measurement": "Re-challenge (final tumor free mice/re-challenged mice)", "setting": "[1]; [4]", "result": "1/1"}, {"measurement": "TGI (day 3)", "setting": "[1]; Table 10 (FIGS. 6A-6B), 3 mg/kg (first cycle) IP, 2 mg/kg (second cycle) IV, b.i.d. × 5, 2 cycles", "result": "95.71% (day 3)"}, {"measurement": "CR (tumor free mice/mice treated)", "setting": "[1]; Table 10, 3, 2 mg/kg b.i.d. × 5, 2 cycles", "result": "0/8"}, {"measurement": "TGI (day 17)", "setting": "[1]; Table 11 (FIGS. 7A-7B), 2 mg/kg IP b.i.d. × 5, 2 cycles", "result": 102.41, "unit": "%"}, {"measurement": "CR (tumor free mice/mice treated)", "setting": "[1]; [5]", "result": "1/8"}, {"measurement": "Re-challenge (final tumor free mice/re-challenged mice)", "setting": "[1]; [5]", "result": "1/1"}, {"measurement": "TGI (day 15)", "setting": "[2]; Table 13 (FIG. 8)", "result": 100.75, "unit": "%"}, {"measurement": "CR (day 38) (tumor free mice/mice treated)", "setting": "[2]; Table 13", "result": "1/8"}]}
{"substance": "aldesleukin", "values": [{"measurement": "Durable responses", "setting": "[3]", "result": "up to 25%"}]}
